Test results: patent US6818643B1, “Neurotrophic bicyclic diamides” (Bristol-Myers Squibb Company, priority 1999, dated 2004)

What was measured:
FKBP12 [1] = target: T1, FKBP12 (Homo sapiens, UniProt P62942); assay: FKBP12 Rotamase Inhibition Assay; assay type: biochemical
Procedure: FKBP12 Rotamase Inhibition Assay
The rotamase activity of FKBP-12 was measured by an adaptation of the assay described by Kofron et al. (Biochemistry, 30, pp. 6127-6134 (1991)). The assay was carried out at 4° C. with 1 mg chymotrypsin/mL of assay with succinyl-Ala-Leu-Pro-Phe-p-nitroanilide as the substrate. Chymotrypsin rapidly hydrolyzes the peptide bond on the C-terminal side of the Phe of the trans form of the peptide and releases the chromogenic p-nitroaniline. The rate of the reaction is controlled by the rate of conversion of the cis form of the peptide to the trans-form, the reaction catalyzed by FKBP12. The apparent Ki values for inhibition of the rotamase activity were determined by measuring decreases in the first order rate constant of the reaction catalyzed by FKBP12 as a function of the concentrations of the compounds described herein. Ki is the concentration of the compound that causes 50 percent inhibition of rotamase activity which is indicative of neurite outgrowth activity.

FKBP12 [2] = target: T1, FKBP12; assay: Fluorescence Polarization (FP) Assay of FKBP12 Binding; conditions: for inhibition at 1 µM: read-out: % FP inhibition at 1 μM
Procedure: Fluorescence Polarization (FP) Assay of FKBP12 Binding
The buffer (25 mM HEPES, 100 mM sodium chloride, pH 7.5) with pre-mixed enzyme and fluorescent ligand is distributed into wells (190 μL/well). Inhibitors are added as 10 μL of a 10% dimethylsulfoxide solution in the same buffer. FP is measured with an excitation wavelength of 485 nm and emission wavelength of 520 nm.

[3] = Table 2, 1 μM compound, 100 nM fluorescent ligand, 200 nM FKBP12
[4] = Table 1, 1 μM compound, 100 nM fluorescent ligand, 200 nM FKBP12

T1 sequence (P62942 whole entry, species assumed): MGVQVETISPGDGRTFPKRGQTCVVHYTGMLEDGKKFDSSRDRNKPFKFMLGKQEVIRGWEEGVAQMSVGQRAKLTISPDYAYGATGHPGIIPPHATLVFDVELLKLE

COc1cc(C(=O)C(=O)N2C3CCC2C(=O)N(C(CCc2ccccc2)CCc2ccccc2)C3)cc(OC)c1OC [Example 5, (1S,5R)-8-(3,4,5-Trimethoxyphenyl)oxalyl-3,8-diaza-3-[3-phenyl-1-(2-phenylethyl)propyl]bicyclo[3.2.1]octan-2-one]
inhibition at 1 µM (FKBP12 [1]; Table 2, 1 μM compound): 49%

COc1ccc(CCCCN2CC3CCCC(C2=O)N3C(=O)C(F)(F)c2cc(OC)c(OC)c(OC)c2)cc1OC (stereo not shown) [Example 36, 9-(3,4,5-Trimethoxyphenyl)difluoroacetyl-3,9-diaza-3-[4-(3,4-dimethoxyphenyl)butyl]bicyclo[3.3.1]-nonan-2-one]
Ki (FKBP12 [2]; Table 1, rotamase Ki derived from FP assay): 160 nM | inhibition at 1 µM (FKBP12 [2]): 61%

COc1cc(C(F)(F)C(=O)N2C3CCCC2C(=O)N(CC(CCCc2ccccc2)CCCc2ccccc2)C3)cc(OC)c1OC (stereo not shown) [Example 37]
inhibition at 1 µM (FKBP12 [2]; [3]): 4%

COc1cc(CCCC(CCCc2ccccc2)CN2CC3CCCC(C2=O)N3C(=O)C(F)(F)c2cc(OC)c(OC)c(OC)c2)cc(OC)c1OC (stereo not shown) [Example 38, 9-(3,4,5-Trimethoxyphenyl)difluoroacetyl-3,9-diaza-3-[2-(3-phenylpropyl)-5-(3,4,5-trimethoxyphenyl)pentyl]bicyclo[3.3.1]-nonan-2-one]
inhibition at 1 µM (FKBP12 [2]; [3]): 50%

CCC(C)(C)C(=O)C(=O)N1C2CCC1C(=O)N(CCCc1cc(OC)c(OC)c(OC)c1)C2 (stereo not shown) [Example 39, 1-{3,8-Diaza-2-oxo-3-[3-(3,4,5-trimethoxyphenyl)propyl]bicyclo[3.2.1]oct-8-yl}-3,3-dimethylpentane-1,2-dione]
inhibition at 1 µM (FKBP12 [2]; [4]): 4%

COC(=O)C(=O)N1C2CCCC1C(=O)N(CCCc1cc(OC)c(OC)c(OC)c1)C2 (stereo not shown) [Example 40, Methyl-2-{3,9-diaza-2-oxo-3-[3-(3,4,5-trimethoxyphenyl)propyl]bicyclo[3.3.1]non-9-yl}-2-oxoacetate]
inhibition at 1 µM (FKBP12 [2]; [4]): 6%

CCC(C)(C)C(=O)C(=O)N1C2CCCC1C(=O)N(CCCc1cc(OC)c(OC)c(OC)c1)C2 (stereo not shown) [Example 41, 1-{3,9-Diaza-2-oxo-3-[3-(3,4,5-trimethoxyphenyl)propyl]bicyclo[3.3.1]non-9-yl}-3,3-dimethylpentane-1,2-dione]
inhibition at 1 µM (FKBP12 [2]; [4]): 4%

COc1cc(C(=O)C(=O)N2C3CCC2C(=O)N(CCCO)C3)cc(OC)c1OC [Example 42, (1S,5R)-8-(3,4,5-trimethoxyphenyl)oxalyl-3,8-diaza-3-(3-hydroxypropyl)bicyclo[3.2.1]octan-2-one]
inhibition at 1 µM (FKBP12 [2]; [4]): 19%

CCC(C)(C)C(=O)C(=O)N1CCCC[C@H]1C(=O)OC(CCCc1ccccc1)CCNC(=S)Nc1ccc(-c2c3ccc(=O)cc-3oc3cc(O)ccc23)c(C(=O)O)c1 (stereo partly drawn) [fluorescent FKBP12 ligand, 1-Phenyl-6-(fluoresceinylaminothiocarbamoyl)-4-hexyl-(S)-N-(t-pentylglyoxyl)pipecolate, reference compound]
Ki (FKBP12 [1]; read-out: Ki measured by the prolyl isomerase assay): 32 nM
